# Assay results as given in US10568897B2, “Bidens pilosa and polyacetylenic compounds for prevention and treatment of coccidiosis” (ACADEMIA SINICA, priority 2011, dated 2020).
# Tested on: E. tenella
# Assay: Eimeria infection (coccidiosis) in chickens: survival, body weight, clinical symptoms, gut lesions, excreted oocysts
# Assay type: in vivo
# Settings: for Body weight Day 21: diet with 6 mg/kg maduramicin or 50 g/kg BPP for 7 days, 6 mg/kg
# Experimental: FIGS. 3 A-F show the effect of BPP on the survival rate (FIG. 3A), sick bird appearance (FIG. 3B) and clinical symptoms (FIG. 3C) in the chickens. One-day-old chickens were fed with control diet for 14 days. On day 14, the birds were infected with vehicle (CTR) or E. tenella (ET) and fed with control diet (CTR and ET groups) and the diet containing 6 mg/kg maduramicin (ET+Mad), or 5%, or 1%, or 0.5% of BPP (ET+BPP) for additional 7 days. After the birds were sacrificed, the cecum was dissected and fixed for hematoxylin and eosin Y staining. The representative images of cecal hemorrhagic lesions (FIG. 3D) and histopathology (FIG. 3E) are shown.
# One-d-old Lohmann broiler chicks hatched at Taichung Hatchery (Taiwan) were wing-banded upon arrival, weighed, and randomly placed in Petersime starter brooder units. At 1 and 2 d post-hatch, the birds were given free access to water and diets. The diets were formulated by mixing the base diet (Chicken feed, Taiwan Sugar Corporation) with carrier alone (control diet) or the indicated dose of B. pilosa power (BPP diet). In case of cytopiloyne experiments, the animal was administered with 45 μg of isolated cytopiloyne each day. After grouping, birds were tube-fed with Eimeria oocysts. Growth performance (body weight and feed conversion), pathology (bloody droppings and gut morphometry) and survival rate were measured and examined. All birds were maintained in the institutional animal facility and handled according to the guidelines of the Academia Sinica Institutional Animal Care and Utilization Committee.
# Since B. pilosa was claimed to treat protozoan and bacterial infections, we tested whether B. pilosa could protect the chickens from coccidiosis. To this end, we infected the […] birds with vehicle and Eimeria oocysts. The birds were given control diet, the control diet mixed with maduramicin, a commercial anti-coccidial, and 10% BPP diet. […] In contrast, 60% of the birds with Eimeria infection survived 7 days post-infection (FIG. 3A). However, treatment with a dose (6 mg/k) of maduramicin and a dose (50 g/kg) of […] BPP increased the survival rate of the birds with Eimeria infection by 30% (FIG. 3A). […] However, treatment with maduramicin and BPP increased body weight from 132.5 g to 145.4 g and 154.3 g. respectively (Table 2). […] One-d-old chickens were fed with control diet for 14 days. On day 14, the birds were infected with vehicle (CTR) or E. tenella (ET) and fed with control diet (CTR and ET groups) and the diet containing 6 mg/kg maduramicin (ET+Mad) or 50 g/kg BPP (E+T BPP) for additional 7 days. Body weight was measured. The number of the birds in each group is indicated in the parentheses.
# Next, we checked clinical symptoms of the chickens with or without Eimeria infection. […] In contrast, the birds with Eimeria infection show the typical sick bird appearances (FIG. 3B). […] In contrast, treatment with maduramicin or BPP reduced bloody droppings and diarrhea (FIG. 3C).
# The gut lesions of the birds 7 days post-infection were also examined. Hemorrhagic lesions in the cecum of the birds infected with Eimeria oocysts were observed (FIG. 3D). In contrast, treatment with maduramicin and BPP alleviated the severity of hemorrhagic lesions (FIG. 3D).
# The excretion of oocysts is an important indicator of the efficacy of anti-coccidial drug. Thus, we assessed the number of excreted oocysts from the chickens with Eimeria infection. […] The data on the effect of BPP on the reduction of the excreted oocysts are consistent with the alleviation of the clinical symptoms by BPP. […] One-d-old chickens were fed with control diet for 14 days. On day 14, the birds were infected with vehicle (CTR) or E. tenella (ET) and fed with control diet (CTR and ET groups) and the diet containing 6 mg/kg maduramicin (ET+Mad) or 50 g/kg BPP (ET+BPP) for additional 7 days. The number of the excreted oocysts in the feces (oocysts per gram) of the birds was determined. […]
# [1] = E. tenella infected on day 14, diet with 6 mg/kg maduramicin or 50 g/kg BPP
# [2] = Eimeria infected birds given diet with maduramicin or BPP
smiles,measurement,setting,value
"CO[C@@H]1[C@@H](OC)[C@H](C)[C@@](O)(CC(=O)O)O[C@H]1[C@H](C)[C@H]1O[C@@]2(CC[C@@](C)([C@H]3CC[C@@](C)([C@@H]4O[C@@H]([C@H]5O[C@](C)(O)[C@H](C)C[C@@H]5C)C[C@@H]4O[C@@H]4C[C@H](OC)[C@@H](OC)[C@H](C)O4)O3)O2)C[C@H](O)[C@H]1C [maduramicin, Maduramicin]",Number of the excreted oocysts in the infected birds,6 mg/kg maduramicin or 50 g/kg BPP diet,reduced half
same,Severity of hemorrhagic lesions in the cecum,7 days post-infection,alleviated
same,Number of villi and depth of crypts in the gut,"7 days post-infection, histostaining",increased
same,Excreted oocysts in the feces Day 4,[1],5 ± 0.3 oocysts per gram
same,Excreted oocysts in the feces Day 5,[1],78 ± 3.8 oocysts per gram
same,Excreted oocysts in the feces Day 6,[1],187 ± 4.7 oocysts per gram
same,Excreted oocysts in the feces Day 7,[1],343 ± 52.2 oocysts per gram
same,Body weight Day 21,E. tenella infected on day 14,145.4 g
same,Body weight Day 21,"E. tenella infected on day 14, listed as Mad",145.4 ± 6.2 g
same,Bloody droppings and diarrhea,[2],reduced
same,"Sick bird appearance (droopiness, listlessness, ruffled feather)",[2],no obvious sick bird appearance
